The values that follow come from patent publication US4710564A, “Anthracycline compounds” (Microbial Chemistry Research Foundation, priority 1985, dated 1987).

Data set [1] concerns P388 leukemia. Put plainly: Antitumor activity against P388 leukemia in mice, i.p. administration (T/C, therapeutic index). It counts as in vivo, CDF1 mice. The settings on record: for ED (T/C 130%): Mus musculus, P388, ip, read-out: Dose for T/C = 130 %.
The nature of data set [2]: Solubility.
Data set [3] is described as follows: in vivo. Particulars: mouse, iv.
Data set [4] deals with Adriamycin-resistant P 388 leukemia cells (P 388/ADR). Description: cells. It counts as cell-based. The settings on record: for IC50: Mus musculus, P388, 48 h, read-out: IC50 P388/ADR; for R/S: mouse, 2880 min.
The test system of data set [5] is heart.
The test system of data set [6] is P 388 leukemia. Put plainly: animal or person. It counts as in vivo, CDF1 mice. Particulars: for ED (T/C 130%): Mus musculus, P388, iv, read-out: Dose for T/C = 130%.
For data set [7], the system named is P 388 leukemia. Description: animal or person. It counts as in vivo, CDF1 mice. The settings on record: for ED (T/C 130%): Mus musculus, P388, po, read-out: Dose for T/C = 130%.
Data set [8] concerns Lewis lung carcinoma. Description: Tumor growth inhibition against solid tumors (Lewis lung carcinoma). The settings on record: for Tumor growth inhibition: i.v., days 1, 5 and 9, day 13.
The subject of data set [9] is P 388 leukemia. Particulars: known from the art; cited from earlier work.
The conditions of data set [10]: comp. data from Japanese Patent Application Laid-Open Pub. No. 76896/1980; cited from earlier work.
Where [11] appears, read: mouse, in vivo, ip, 0.5 mg/kg/day.
Where [12] appears, read: mouse, in vivo, ip, 1 mg/kg/day.
Setting [13] is: mouse, in vivo, ip, 2 mg/kg/day.
Where [14] appears, read: mouse, in vivo, ip, 4 mg/kg/day.
Where [15] appears, read: mouse, in vivo, iv, 1 mg/kg/day.
Where [16] appears, read: mouse, in vivo, iv, 2 mg/kg/day.
The mark [17] stands for this setting: mouse, in vivo, iv, 4 mg/kg/day.
Where [18] appears, read: mouse, in vivo, iv, 8 mg/kg/day.
Where [19] appears, read: mouse, in vivo, po, 1 mg/kg/day.
The mark [20] stands for this setting: mouse, in vivo, po, 2 mg/kg/day.
Setting [21] is: mouse, in vivo, po, 4 mg/kg/day.
Setting [22] is: mouse, in vivo, ip, 8 mg/kg/day.
The mark [23] stands for this setting: mouse, in vivo, ip, 12 mg/kg/day.
Where [24] appears, read: mouse, in vivo, ip, 16 mg/kg/day.
Where [25] appears, read: mouse, in vivo, iv, 16 mg/kg/day.
Setting [26] is: mouse, in vivo, iv, 32 mg/kg/day.
The mark [27] stands for this setting: mouse, in vivo, po, 8 mg/kg/day.
Where [28] appears, read: mouse, in vivo, po, 16 mg/kg/day.
Where [29] appears, read: mouse, in vivo, po, 32 mg/kg/day.

≈ marks a conversion by molar mass, not a printed value. Where two headings read alike, the source gives them in different places.

Consider `CCC1(O)CC(OC2CC(N3CCOCC3)C(O)C(C)O2)c2c(O)c3c(c(O)c2C1O)C(=O)c1cccc(O)c1C3=O` (stereo not shown) [3'-deamino-3'-(4-morpholinyl)-R20X2], for which the ED (T/C 130%) came to 0.35 mg/kg/day in data set [1], 0.43 mg/kg/day in [6] and 0.58 mg/kg/day in data set [7]. Besides, the Therapeutic index in data set [1] (mouse, in vivo, ip) is on record as 5.7; in data set [6] (mouse, in vivo, iv) it was 4.7; in data set [7] (mouse, in vivo, po), 3.4. Moreover, the T/C in data set [1] (mouse, in vivo, ip, 0.25 mg/kg/day) was 112; in data set [1] (setting [11]) it was 150; in data set [1] (setting [12]) it was 186; in data set [1] (setting [13]), more than 246; in data set [1] (setting [14]), more than 158; in data set [6] (mouse, in vivo, iv, 0.25 mg/kg/day) it was 109. Moreover, the T/C in data set [6] (mouse, in vivo, iv, 0.5 mg/kg/day) is given as 136; in data set [6] (setting [15]) it was 154; in data set [6] (setting [16]), 204; in [6] (setting [17]), 194; in data set [6] (setting [18]) it was 35; in data set [7] (mouse, in vivo, po, 0.25 mg/kg/day), 109. For the same compound, the T/C in data set [7] (mouse, in vivo, po, 0.5 mg/kg/day) worked out at 120; in data set [7] (setting [19]), 164; in [7] (setting [20]), 228; in data set [7] (setting [21]), 103. For the same compound, the “Solubility: insoluble” value in data set [2] (insoluble in) is “insoluble in water, hexane, cyclohexane, diethyl ether, and petroleum ether”. The “Solubility: soluble” value in [2] (soluble in) is “Soluble in acidic water, basic water, methanol, ethanol, propanol, acetone, ethyl acetate, and chloroform”. In addition, the median lethal dose (LD50) (in general, the dose at which mortality reaches 50%) in [3] was determined as 3.55 mg/kg. In addition, the IC50 in data set [4] was determined as 0.011 µg/mL (≈ 0.0188 µM). For the same compound, the R/S in data set [4] is given as 1.22. In addition, the “toxicity to the heart at dosage level of maximum antitumor activity” value in [5] (dosage level T/C=max) is reported as “not found to be toxic”.

As to `COc1cccc2c1C(=O)c1c(O)c3c(c(O)c1C2=O)C[C@@](O)(C(=O)CO)C[C@@H]3O[C@H]1C[C@H](N)[C@H](O)[C@H](C)O1` [Adriamycin, reference compound], the ED (T/C 130%) in data set [1] was less than 0.25 mg/kg/day. Further, the T/C in data set [1] (setting [11]) is 177; in data set [1] (setting [12]), 191; in data set [1] (setting [13]) it was more than 217; in data set [1] (setting [14]) it was 204; in data set [1] (setting [22]) it was more than 256; in [1] (setting [23]) it was 194. For the same compound, in [4], the IC50 worked out at 0.35 µg/mL (≈ 0.644 µM). The R/S in data set [4] is recorded as 29.2. Also, the Tumor growth inhibition in [8] (1 mg/kg/day) is listed as 34.5%; in [8] (2 mg/kg/day), 14.1%; in [8] (4 mg/kg/day), 64.2%; in [8] (8 mg/kg/day), 72.8%.

As to `CC[C@@]1(O)C[C@H](O[C@H]2C[C@H](N(C)C)[C@H](O[C@H]3C[C@H](O)[C@H](O[C@H]4CCC(=O)[C@H](C)O4)[C@H](C)O3)[C@H](C)O2)c2c(cc3c(c2O)C(=O)c2c(O)cccc2C3=O)[C@H]1C(=O)OC` [Aclacinomycin, reference compound], the “Dose for T/C = 130%” value in data set [1] (mouse, in vivo, ip) was determined as 4.4 mg/kg/day; in data set [6] (mouse, in vivo, iv) it was 12.4 mg/kg/day; in data set [7] (mouse, in vivo, po), 15 mg/kg/day. In addition, the Therapeutic index in data set [1] (mouse, in vivo, ip) turned out to be 3.6; in [6] (mouse, in vivo, iv) it was 2.6; in [7] (mouse, in vivo, po), 2.1. Further, the T/C is on record as 111 in data set [1] (setting [13]); 126 in data set [1] (setting [14]); 155 in data set [1] (setting [22]); 182 in data set [1] (setting [24]); 121 in data set [6] (setting [17]); 119 in data set [6] (setting [18]). Further, the T/C in [6] (setting [25]) was 151; in data set [6] (setting [26]), 177; in data set [6] (mouse, in vivo, iv, 64 mg/kg/day), 35; in data set [7] (setting [27]), 119; in data set [7] (setting [28]), 131; in data set [7] (setting [29]), 154. Moreover, the “IC50 P388/ADR” value in data set [4] was found to be 0.025 µg/mL (≈ 0.0308 µM). Further, the R/S in [4] amounted to 1.92. In addition, the “effectiveness by oral administration (in words)” value in data set [9] was “effective in the case of oral administration”.

With `CCC1(O)Cc2cc3c(c(O)c2C(OC2CC(N4CCOCC4)C(O)C(C)O2)C1)C(=O)c1c(O)cccc1C3=O` (stereo not shown) [3'-deamino-3'-(4-morpholinyl)-R20Y5], the ED (T/C 130%) came to 6.2 mg/kg/day in [1], 4.9 mg/kg/day in data set [6] and 4.3 mg/kg/day in [7]. Also, the “antitumor activity compared with R20Y5 (in words)” value in data set [1] (comparison with R20Y5 of Japanese Laid-Open 76896/1980) is reported as “antitumor activity of R20Y5 can be remarkably increased by 3'-deamino-3'-4-morpholinylation”. Further, the T/C in [1] (setting [14]) worked out at 104; in data set [1] (setting [22]), 146; in data set [1] (setting [24]), 175; in data set [1] (mouse, in vivo, ip, 32 mg/kg/day) it was 219; in [1] (mouse, in vivo, ip, 64 mg/kg/day) it was 93; in data set [6] (setting [16]), 104. Besides, the T/C is recorded as 123 in data set [6] (setting [17]); 148 in data set [6] (setting [18]); 182 in [6] (setting [25]); more than 240 in data set [6] (setting [26]); 127 in [7] (setting [21]); 154 in [7] (setting [27]). Besides, the T/C in [7] (setting [28]) is listed as 191; in data set [7] (setting [29]) it was 263; in data set [7] (mouse, in vivo, po, 64 mg/kg/day) it was 238. In addition, the LD50 in data set [3] was 65 mg/kg. Besides, in data set [8] (Lewis lung carcinoma), the “antitumor activity against solid tumors (in words)” value is reported as “antitumor activity comparable to or better than that of Adriamycin against solid tumors”. For the same compound, the Tumor growth inhibition in [8] (4 mg/kg/day) turned out to be 9.6%; in data set [8] (8 mg/kg/day) it was 31.0%; in data set [8] (16 mg/kg/day), 66.6%; in data set [8] (32 mg/kg/day), 91.7%.

Turning to `CCC1(O)Cc2cc3c(c(O)c2C(OC2CC(N)C(O)C(C)O2)C1)C(=O)c1c(O)cccc1C3=O` (stereo not shown) [R20Y5, 11-deoxy-13-deoxocarminomycin], in data set [10], the LD50 was 15 mg/kg.

For the compound `CCC1(O)Cc2c(O)c3c(c(O)c2C(OC2CC(N4CCOCC4)C(O)C(C)O2)C1)C(=O)c1c(O)cccc1C3=O` (stereo not shown) [3'-deamino-3'-(4-morpholinyl)-R20X], the figures for the ED (T/C 130%) in data set [1], in [6] and in data set [7] were 0.75 mg/kg/day, 2.5 mg/kg/day and 1.45 mg/kg/day, respectively. The T/C in data set [1] (setting [11]) is on record as 104; in data set [1] (setting [12]), 148; in data set [1] (setting [13]), 177; in data set [1] (setting [14]), 218; in data set [1] (setting [22]), more than 303; in data set [1] (setting [23]), 231. The T/C is 104 in data set [6] (setting [15]); 119 in data set [6] (setting [16]); 155 in data set [6] (setting [17]); 151 in data set [6] (setting [18]); 57 in data set [6] (mouse, in vivo, iv, 12 mg/kg/day); 111 in [7] (setting [19]). The T/C in [7] (setting [20]) was found to be 146; in [7] (setting [21]) it was 170; in [7] (setting [27]), 214; in data set [7] (setting [28]) it was 219. Also, the LD50 in data set [3] turned out to be 12.3 mg/kg. Besides, in data set [5] (hamster, in vivo), the “toxicity to the heart at dosage level of maximum antitumor activity” value was “not found to be toxic”.
